Each structure is given as a SMILES string. Structures can show the parent of a compound that is named as a salt. Where two headings read alike, the source gives them in different places. Some results are limits rather than exact numbers.

In data set [1] the test system is mtDNA production in human PBMCs.
The test system of data set [2] is HBVWT^C2. The data set can be described thus: Antiviral effect in chronically HBVWT^C2-infected PXB-mice. The data set is classed as in vivo. Conditions: for reduction of serum HBVWT^C2-DNA copies: day 21.
In data set [3] the test system is HBVWT^C2. The data set is described as follows: Anti-HBV qPCR assay in HBV-exposed PXB-cells. The data set is classed as cell-based, Hepatitis B virus. Conditions: for IC50: Hepatitis B virus, read-out: IC50^qPCR_cell; for IC95^qPCR_sup / IC95^qPCR_cell: PXB-cells; for IC95^qPCR_sup: HBVWT^C2, HBV-DNA in culture medium blocked by 95%; for IC95^qPCR_cell: HBVWT^C2, intracellular HBV-DNA blocked by 95%. Background: In qPCR the cycle at which signal appears reflects the starting amount.

Data set [4] has as its system MOT-4 cells and human primary peripheral blood mononuclear cells. The data set is described as follows: Cell proliferation assays in MOT-4 cells and human PBMCs. It counts as cell-based.
Data set [5] relates to HBV. The data set is described as follows: Combination of E-CFCP with GLS4, HBV-DNA production by HepG2.2.15 cells. It counts as cell-based, Hepatitis B virus.
Data set [6] is described as follows: Body weights and serum human albumin in treated PXB-mice. It counts as in vivo.
Data set [7] is described as follows: Cytotoxicity, MTT assay, MT-2 cells. The data set is classed as cell-based. The following applies: human. On the technique in general: Tetrazolium assays rely on reduction of a dye to a coloured formazan, in cell work by metabolically active cells.
The test system of another data set is HIV-1LAI. The data set can be described thus: Anti-HIV assay. It counts as cell-based. Conditions: Human immunodeficiency virus 1, read-out: IC50^MTT.
A short description of data set [8]: Cytotoxicity, MTT assay, HepG2 cells. It counts as cell-based. Conditions: human.
For data set [9], the system named is HBVWT^D1. The data set is described as follows: microbe, parasite or virus in culture. Conditions: Hepatitis B virus, HepG2.2.15, read-out: IC50^qPCR_cell.
Data set [10] concerns HBVWT^D1. The data set is described as follows: microbe, parasite or virus in culture. The data set is classed as cell-based, Hepatitis B virus.
Data set [11] in a line: Cytotoxicity, Neutral Red staining assay, primary hepatocytes. Conditions: human.
The nature of data set [12]: Cytotoxicity, MTT assay, Huh7 cells. The data set is classed as cell-based. Conditions: human.
Data set [13] can be described thus: Intracellular concentration of compound in HepG2.2.15 cells. The data set is classed as in vitro ADME, human. The following applies: 100 µM, 6 hours incubation.
The subject of data set [14] is HBVWT^D1. Conditions: high concentrations (100 and 1,000 nM), HepG2.2.15 cells.
Data set [15] is described as follows: Cytotoxicity, LDH release assay, primary hepatocytes. The following applies: human.
Data set [16] can be described thus: Cytotoxicity, MTT assay, PXB-cells. It counts as cell-based. Conditions: human.
Data set [17] deals with mtDNA production in PXB-cells.
Data set [18] is described as follows: Acid resistance: anti-HBV activity after pH 2 exposure. It counts as physicochemical. Conditions: pH 2, 5 and 60 minutes at 37 °C, then tested in HepG2.2.15 cells.
The test system of data set [19] is HBV. The following applies: 90 mg/kg/day, 3-week administration, HBV-infected PXB-mice; cited from earlier work.
Data set [20] in a line: Intracellular concentrations of phosphorylated forms in HepG2.2.15 cells. It counts as in vitro ADME, human.
The mark [21] stands for this setting: 10 µM, 6 days of culture without compound.

Turning to `C=C1C(n2cnc3c(=O)[nH]c(N)nc32)CC(O)C1(C#N)CO` (stereo not drawn) [CMCdG], in [1] (human PBMCs and PXB-cells), the “inhibition of mtDNA production (in words)” value is reported as “non-toxic”.

With `N#C[C@]1(CO)/C(=C\F)[C@@H](n2cnc3c(=O)[nH]c(N)nc32)C[C@@H]1O` [E-CFCP], the “reduction of serum HBVWT^C2-DNA copies” value in the data set with HBVWT^C2 [2] (0.02 mg/kg/day for two weeks) worked out at 2.2±0.06 log; with HBVWT^C2 [2] (0.2 mg/kg/day for two weeks) it was 2.6±0.1 log. In addition, in the data set with HBVWT^C2 [2] (0.2 mg/kg/day), the “persistence of reduction after administration cessation” value is recorded as at least 3 weeks. For the same compound, the “persistence of reduction following treatment cessation” value in the data set on HBVWT^C2 [2] (PXB-mice, 0.02∼0.2 mg/kg/day) is 1–3 weeks. Besides, the “reduction of HBVWT^C2-viremia” value with HBVWT^C2 [2] (once-daily peroral, 2 weeks, 0.02∼0.2 mg/kg/day) is 2–3 logs. Besides, the IC50 (as a rule, the concentration that gives 50% inhibition) is 10 pM in the data set with HBVWT^C2 [3], 0.205 ± 0.0238 µM in the data set with HIV-1LAI and 0.0018 µM in the data set on HBVWT^D1 [9]. In addition, in the data set with HBVWT^C2 [3], the “IC95^qPCR_sup” value turned out to be 0.0035 µM. For the same compound, the “IC95^qPCR_cell” value in the data set with HBVWT^C2 [3] turned out to be 0.339 µM. Besides, the “cell proliferation safety profile (in words)” value in data set [4] was “highly favorable safety profiles”. For the same compound, the “combination effect with GLS4 (Chou-Talalay Method)” value in the data set with HBV [5] (1 and 10 nM E-CFCP with GLS4 at the same concentration) is reported as “synergism was observed”; in the data set with HBV [5] (100 and 1,000 nM E-CFCP with GLS4 at the same concentration), “no synergism was detected”. Moreover, the Mitotox50 in data set [1] (human PBMCs, mtDNA production) is recorded as 38.2 µM; in [17] (PXB-cells, mtDNA production) it was 29.6 µM. The “changes in body weights or serum human albumin levels” value in [6] (0.2 mg/kg/day for 2 weeks, HBVWT^C2-infected PXB-mice) is listed as “No significant changes”. In addition, the “changes of body weights and human serum albumin over 8 weeks” value in data set [6] (once daily 0.2 mg/kg/day, E-CFCP-receiving vs ETV-receiving mice) is recorded as “no significant changes”. Also, the CC50 (in general, the concentration giving 50% cytotoxicity) in [7] (MT-2 cells) is 306 µM; in data set [8] (HepG2 cells), 115 µM; in data set [11] (primary hepatocytes), above 100 µM; in data set [12] (Huh7 cells), above 500 µM; in data set [15] (primary hepatocytes) it was above 100 µM; in [16] (PXB-cells), above 500 µM. Moreover, the HBV-DNA synthesis blockade is recorded as 100% in the data set on HBVWT^D1 [10] (setting [21]) and above 80% in the data set with HBVWT^D1 [10] (10 µM, 16 days of culture without compound). Moreover, in the data set on HBVWT^D1 [10] (10 µM, exposed 11 days, 14 days of culture without compound), the “% inhibition of HBVWT^D1-DNA production” value is recorded as above 90%. Moreover, the “persistence of anti-HBV activity (>80% Inhibition) after compound removal” value in the data set on HBVWT^D1 [10] (HepG2.2.15 cells) is reported as around 16 days. The intracellular concentration entry in [13] is reported as “approximately 200 pmol/2×10^6 cells”. Also, the “inhibition of HBV-DNA production” value in the data set with HBVWT^D1 [14] is recorded as 100%. Besides, the “anti-HBV activity after pH 2 exposure” value in [18] is on record as “comparable to pH 2-unexposed E-CFCP”.

As for `C=C1[C@H](CO)[C@@H](O)C[C@@H]1n1cnc2c(=O)[nH]c(N)nc21` [ETV, entecavir], the “reduction of serum HBVWT^C2-DNA copy numbers” value with HBVWT^C2 [2] (0.02 mg/kg/day, two weeks, at conclusion of administration (day 14)) came out at 2.0±0.07 log. In the data set on HBVWT^C2 [3], the IC50 was 130 pM, the “IC95^qPCR_sup” value was determined as 0.079 µM and the “IC95^qPCR_cell” value came to 0.859 µM. Further, in data set [1] (human), the Mitotox50 is listed as 40.4 µM. In the data set with HBVWT^D1 [10] (setting [21]), this compound yielded an HBV-DNA synthesis blockade below 80%. Also, in the data set on HBVWT^D1 [14], the “inhibition of HBV-DNA production” value is recorded as below 100%. In addition, the Mitotox50 in [17] (human) is on record as 35.2 µM.

As to `CC(C)OC(=O)[C@H](C)N[P@](=O)(CO[C@H](C)Cn1cnc2c(N)ncnc21)Oc1ccccc1` [TAF, tenofovir alafenamide, reference compound], in the data set with HBVWT^C2 [3], the IC50 stood at 590 pM. In the data set with HBVWT^C2 [3], the “IC95^qPCR_sup” value worked out at 0.09 µM. In addition, the “IC95^qPCR_cell” value in the data set with HBVWT^C2 [3] is 0.513 µM. Moreover, the CC50 came out at 21 µM in data set [7]; 22 µM in data set [8]; 26 µM in data set [11]; 34 µM in [12]; 97 µM in data set [15]; 8.2 µM in [16]. The inhibition – broadly, the drop in the measured response relative to a control, in per cent – at 1 µM with HBVWT^D1 [10] (Hepatitis B virus, HepG2.2.15, read-out: HBV-DNA production inhibition) worked out at 90%. The “inhibition of HBV-DNA production” value in the data set on HBVWT^D1 [14] is listed as below 100%.

Consider `CC(C)OC(=O)OCOP(=O)(CO[C@H](C)Cn1cnc2c(N)ncnc21)OCOC(=O)OC(C)C` [TDF, tenofovir disoproxil fumarate], for which the viral load reduction result in the data set on HBV [19] is “approximately 1.5 logs”.

Turning to `C[C@@H](Cn1cnc2c(N)ncnc21)OCP(=O)(O)OP(=O)(O)OP(=O)(O)O` [TFV-DP], the “intracellular phosphorylated form (in words)” value in [20] is “not detected by day 3 and beyond”.

As for `N#C[C@]1(CO)/C(=C/F)[C@@H](n2cnc3c(=O)[nH]c(N)nc32)C[C@@H]1O` [Z-CFCP], the IC50 in the data set on HBVWT^D1 [9] came to 0.414 µM.

Regarding `Nc1ccn([C@H]2CC[C@@H](CO)O2)c(=O)n1` [zalcitabine/ddC, zalcitabine], the “inhibition of mtDNA production (in words)” value in data set [1] is given as “strongly blocked mtDNA production”.

The values above are taken from paper PMC9703152 (Journal of hepatology, 2020).
